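Growth conditions: 96-well plates. Treatment: test compound, 48 hours, 5 concentrations. Analysis: linear interpolation between bracketing concentrations; unreached endpoints set to highest concentration. GI50: concentration for 50% inhibition of growth. TGI denotes the concentration required for complete inhibition of growth.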 Where a SMILES comes first, the peptide text is derived from it. The star is where a group is joined. Boc = CC(C)(C)OC(=O)* Bounds are passed on as bounds.

The test system of one test is NCI/ADR-RES ovarian. Nature of the test: DTP human tumour cell line panel, 48 h.
In the case of `CCOC(=N)n1c(=O)n(C2=NCCN2)c2ccccc21`, the TGI was greater than 100 µM.
The same measure, in the same setting: as for `O=C(N=Nc1cc(Cl)ccc1Cl)NNc1cc(Cl)ccc1Cl`, the figure is 61.2 µM.
The same measure, in the same setting: as for `CSc1cc(Cl)c(C)cc1S(=O)(=O)NC(=O)NNc1ccc(Cl)cc1`, the figure is greater than 100 µM; as for `Cc1cc2[nH]c3[nH]c(=O)[nH]c(=O)c3c2cc1C`, greater than 100 µM; as for `O=c1c2ccccc2nc2[nH][nH]c(=S)n12`, greater than 100 µM.
Turning to `CC1(C)N=C(C(N)=O)c2ncn(CCCO)c2N1`, the TGI was greater than 100 µM.
Consider `CC(C)(C)OC(=O)NCC(=O)NCC(=O)NCC(=O)NCC(=O)O` (Boc-GGGG-OH), for which the total growth inhibition concentration (TGI) was greater than 100 µM.
For the compound `COc1ccc(CC(O)CN2CCOCC2)cc1` (stereo unspecified), the concentration for total growth inhibition (TGI) was greater than 100 µM.
Consider `CC(O)C1CC1(CO)CNc1cc(Cl)nc(N)n1` (stereo unspecified), for which the TGI is greater than 100 µM.
On the same count and under the same terms, as for `CN(C)Cc1cc(C(=O)/C=C/c2ccc(O)cc2)cc(CN(C)C)c1O`, the figure is greater than 100 µM.

The subject of another test is OVCAR-3 ovarian. The test can be described thus: DTP human tumour cell line panel, 48 h.
`CS(=O)(=O)OCCn1c(=O)n(CCOS(C)(=O)=O)c(=O)n(CCOS(C)(=O)=O)c1=O` returned a total growth inhibition concentration (TGI) greater than 100 µM.
Regarding `c1ccc2c(c1)NC(C1OC3CCCN3C1C1Nc3ccccc3S1)S2` (stereo unspecified), the TGI was greater than 100 µM.
Same read-out and setting: as for `COc1nc(C#CCC(C)O)nc(OC)n1` (stereo unspecified), the figure is 47.9 µM.
Still for that read-out and setting: as for `Cc1c2c(n(CCc3ccc(Cl)cc3)c1C)NN=C(C#N)S2(=O)=O`, the figure is greater than 100 µM; as for `CSc1c(C#N)c(N)n2c1C(=O)N(c1ccccc1)C2=S`, greater than 100 µM.
As to `COc1ccc2cc(-c3ccc(-c4ccc(C(=N)N)s4)s3)ccc2c1`, the GI50 is 2.42 µM and the TGI was determined as 6.07 µM.
`N#CCCN(CCC#N)c1ccc(/C=C2\N=C(c3ccccc3)N(c3ccc(Cl)cc3)C2=O)cc1` came in with a total growth inhibition concentration (TGI) greater than 100 µM.
Same read-out and setting: as for `NNC(=O)c1ccc[n+](CCc2ccccc2)c1`, the figure is greater than 100 µM.
The same measure, in the same setting: as for `O=C1CN2C(c3ccccc3)=NN(c3ccc([N+](=O)[O-])cc3)C2(c2ccccc2)c2cc(Cl)ccc2N1CC1CC1` (stereo unspecified), the figure is greater than 100 µM; as for `CCN(CCO)CC1COc2ccccc2O1` (stereo unspecified), greater than 100 µM; as for `c1ccc2sc(SCSc3nc4ccccc4s3)nc2c1`, greater than 100 µM.
In turn, `CCOC(=O)c1c(-c2ccc(OC)cc2)c(C#N)c(=S)n(C2OC(COC(C)=O)C(OC(C)=O)C(OC(C)=O)C2OC(C)=O)c1C` (stereo unspecified) came in with a TGI greater than 100 µM.
Same read-out and setting: next, `O=c1cc(N=P(c2ccccc2)(c2ccccc2)c2ccccc2)n(-c2ccccc2)c(=O)n1-c1ccccc1`: 32.3 µM; `O=C(CCCN1CCC2(CC1)CC(=O)N(N1CCOCC1)C2=O)c1ccccc1`: greater than 100 µM; `O=C1/C(=C\c2cccc(Oc3ccccc3)c2)S(=O)(=O)C(c2ccccc2)N1Cc1ccccc1` (stereo unspecified): 34.2 µM.
With `Cc1ccccc1C(O)(c1nccn1C)c1nccn1C`, the concentration for total growth inhibition (TGI) was greater than 100 µM.
Same read-out and setting: as for `C=CCn1c(=O)ccn(COCCO)c1=O`, the figure is greater than 100 µM; as for `CCOC(=N)n1c(=O)n(C2=NCCN2)c2ccccc21`, greater than 100 µM.
On the same count and under the same terms, as for `O=C(N=Nc1cc(Cl)ccc1Cl)NNc1cc(Cl)ccc1Cl`, the figure is 32.7 µM; as for `CSc1cc(Cl)c(C)cc1S(=O)(=O)NC(=O)NNc1ccc(Cl)cc1`, greater than 100 µM.
Take `CCOC(=O)NC(=S)NN(C)C1=NCC(C)(C)S1`: the concentration for total growth inhibition (TGI) was greater than 100 µM.
`O=C(CNc1ccccc1Cl)Nn1c(-c2ccccc2)nc2ccccc2c1=O`: the concentration for total growth inhibition (TGI) came out at 48.3 µM.
Still for that read-out and setting: next, `O=c1c2ccccc2nc2[nH][nH]c(=S)n12`: greater than 100 µM; `CC1(C)N=C(C(N)=O)c2ncn(CCCO)c2N1`: greater than 100 µM; `CC(C)(C)OC(=O)NCC(=O)NCC(=O)NCC(=O)NCC(=O)O` (Boc-GGGG-OH): greater than 100 µM.
The same measure, in the same setting: next, `COc1ccc(CC(O)CN2CCOCC2)cc1` (stereo unspecified): greater than 100 µM; `CC(O)C1CC1(CO)CNc1cc(Cl)nc(N)n1` (stereo unspecified): greater than 100 µM.
The same measure, in the same setting: next, `CN(C)Cc1cc(C(=O)/C=C/c2ccc(O)cc2)cc(CN(C)C)c1O`: 56.2 µM.

Another test deals with OVCAR-4 ovarian. Nature of the test: DTP human tumour cell line panel, 48 h.
With `CS(=O)(=O)OCCn1c(=O)n(CCOS(C)(=O)=O)c(=O)n(CCOS(C)(=O)=O)c1=O`, the TGI was greater than 100 µM.
On the same count and under the same terms, as for `c1ccc2c(c1)NC(C1OC3CCCN3C1C1Nc3ccccc3S1)S2` (stereo unspecified), the figure is greater than 100 µM; as for `COc1nc(C#CCC(C)O)nc(OC)n1` (stereo unspecified), 36.2 µM.
As for `Cc1c2c(n(CCc3ccc(Cl)cc3)c1C)NN=C(C#N)S2(=O)=O`, the total growth inhibition concentration (TGI) is greater than 100 µM.
Still for that read-out and setting: next, `CSc1c(C#N)c(N)n2c1C(=O)N(c1ccccc1)C2=S`: 69.7 µM; `N#CCCN(CCC#N)c1ccc(/C=C2\N=C(c3ccccc3)N(c3ccc(Cl)cc3)C2=O)cc1`: greater than 100 µM.
Still for that read-out and setting: as for `NNC(=O)c1ccc[n+](CCc2ccccc2)c1`, the figure is greater than 100 µM; as for `O=C1CN2C(c3ccccc3)=NN(c3ccc([N+](=O)[O-])cc3)C2(c2ccccc2)c2cc(Cl)ccc2N1CC1CC1` (stereo unspecified), greater than 100 µM; as for `CCN(CCO)CC1COc2ccccc2O1` (stereo unspecified), greater than 100 µM.
Still for that read-out and setting: as for `c1ccc2sc(SCSc3nc4ccccc4s3)nc2c1`, the figure is greater than 100 µM.
Take `CCOC(=O)c1c(-c2ccc(OC)cc2)c(C#N)c(=S)n(C2OC(COC(C)=O)C(OC(C)=O)C(OC(C)=O)C2OC(C)=O)c1C` (stereo unspecified): the TGI was determined as 92.2 µM.
Same read-out and setting: next, `O=c1cc(N=P(c2ccccc2)(c2ccccc2)c2ccccc2)n(-c2ccccc2)c(=O)n1-c1ccccc1`: 45.9 µM.
Still for that read-out and setting: next, `O=C(NCCCN(CCCCN(CCCNC(=O)C(F)(F)F)Cc1ccccc1)Cc1ccccc1)C(F)(F)F`: 68.1 µM; `Cc1ccccc1C(O)(c1nccn1C)c1nccn1C`: greater than 100 µM.
Still for that read-out and setting: next, `C=CCn1c(=O)ccn(COCCO)c1=O`: greater than 100 µM; `CCOC(=N)n1c(=O)n(C2=NCCN2)c2ccccc21`: greater than 100 µM; `CSc1cc(Cl)c(C)cc1S(=O)(=O)NC(=O)NNc1ccc(Cl)cc1`: greater than 100 µM.
On to `O=C(CNc1ccccc1Cl)Nn1c(-c2ccccc2)nc2ccccc2c1=O`, for which the TGI was 93.4 µM.
Compound `CC1(C)N=C(C(N)=O)c2ncn(CCCO)c2N1` returned a total growth inhibition concentration (TGI) greater than 100 µM.
Still for that read-out and setting: as for `CC(C)(C)OC(=O)NCC(=O)NCC(=O)NCC(=O)NCC(=O)O` (Boc-GGGG-OH), the figure is greater than 100 µM; as for `COc1ccc(CC(O)CN2CCOCC2)cc1` (stereo unspecified), greater than 100 µM.
In the case of `CC(O)C1CC1(CO)CNc1cc(Cl)nc(N)n1` (stereo unspecified), the TGI is greater than 100 µM.

A further test relates to SK-MEL-2 melanoma. Nature of the test: DTP human tumour cell line panel, 48 h.
Compound `COc1nc(C#CCC(C)O)nc(OC)n1` (stereo unspecified) registered a TGI of 87.3 µM.
On the same count and under the same terms, next, `Cc1c2c(n(CCc3ccc(Cl)cc3)c1C)NN=C(C#N)S2(=O)=O`: greater than 100 µM.
As to `COc1ccc2cc(-c3ccc(-c4ccc(C(=N)N)s4)s3)ccc2c1`, the GI50 was 2.66 µM and the concentration for total growth inhibition (TGI) was determined as 6.7 µM.
With `N#CCCN(CCC#N)c1ccc(/C=C2\N=C(c3ccccc3)N(c3ccc(Cl)cc3)C2=O)cc1`, the concentration for total growth inhibition (TGI) is greater than 100 µM.

As usually defined, the TGI is the concentration at which net growth stops. Low readings indicate more potent growth arrest, high ones less potent growth arrest. Broadly, the GI50 is the concentration that inhibits growth by half.

Values taken from PubChem BioAssay (NCI).
